Patent publication US6727275B2, “Pyrrolidinone derivatives” (UCB, S.A./N.V., priority 2001, dated 2004)

Columns and labels:
CCR2 [1] = target: T1, CCR2 (Homo sapiens, UniProt P41597); assay: Chemotaxis assay: MCP-1 induced migration of THP-1 cells; format: cell-based; design: endogenous in cells; host or cells: THP-1 cells; conditions: 3 nM MCP-1, 37° C. for 2 hr, read-out: Inhibition of cell chemotaxis, IC50
T1 sequence (P41597 1-360 isoform P41597-2): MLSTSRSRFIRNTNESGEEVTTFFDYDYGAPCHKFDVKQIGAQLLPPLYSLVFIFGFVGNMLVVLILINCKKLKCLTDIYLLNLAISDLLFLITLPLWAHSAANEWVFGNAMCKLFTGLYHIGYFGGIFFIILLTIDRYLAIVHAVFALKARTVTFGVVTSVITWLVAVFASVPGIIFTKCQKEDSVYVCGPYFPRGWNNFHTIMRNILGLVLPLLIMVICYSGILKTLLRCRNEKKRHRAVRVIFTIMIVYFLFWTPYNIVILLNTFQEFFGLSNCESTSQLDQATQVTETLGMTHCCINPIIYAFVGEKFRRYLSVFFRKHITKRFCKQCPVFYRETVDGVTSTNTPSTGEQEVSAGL
Protocol: Antagonism of CCR2 function is determined by a chemotaxis assay. MCP-1 is prepared in buffer (Hanks+0.1% human serum albumin) at 3 nM concentration and aliquoted into the bottom chambers of a 96-well chemotaxis plate (Neuroprobe). THP-1 cells are suspended in the same buffer at 1×10^7 cells/ml and compound added at various concentrations to the aliquots of cells. The cell and compound mixture is added to the top of the polycarbonate membrane (5 μm pore diameter) and the chemotaxis plate incubated at 37° C. for 2 hr. After the unmigrated cells are scraped off the top of the filter, the plate is gently centrifuged and the membrane removed. Cells which migrate to the bottom chamber are quantitated by counting with a hemacytometer. Spontaneous chemotaxis is determined by measuring cell migration in the absence of chemokine. Chemotaxis of a positive control is determined by measuring cell migration without compound. Inhibition of cell chemotaxis is determined as an IC50.

CCR2 [2] = target: T1, CCR2; assay: Binding assay: inhibition of 125I-MCP-1 binding to THP-1 cells; design: CCR2 is also expressed in the human monocytic cell line THP-1; endogenous in cells; host or cells: THP-1 (human monocytic cell line), whole cells; conditions: THP-1 cells, 0.1 nM 125I-MCP-1, 1 hr at room temperature; read-out: Inhibition of 125I-MCP-1 binding to THP-1 cells, IC50
Protocol: Antagonism of the CCR2 receptor is determined by a binding assay using the human monocytic cell line THP-1. Cells are suspended in assay buffer (RPMI+1% BSA+25 mM HEPES) at 3×10^6 cells/ml and an aliquot (180 μl) added to a 0.5 ml siliconized Eppendorf tube. […] After incubation for 1 hr at room temperature, the cell suspension is centrifuged through oil and the cell pellets counted to quantitate cell-bound ligand. Nonspecific (NS) binding of radioligand is determined by the addition of 100 nM cold MCP-1. Control binding is determined by the addition of buffer without compound.

Row | IC50 (CCR2 [1]) | IC50 (CCR2 [2]) | melting point | Structure (SMILES)
1 | ≤ 5 µM | ≤ 5 µM | – | CC(=O)C1=C(O)C(=O)N(c2ccc(Cl)c(C)c2)C1C1CCCCC1 (racemic) [Compound 53, 4-acetyl-1-(4-chloro-3-methylphenyl)-5-cyclohexyl-3-hydroxy-1,5-dihydro-2H-pyrrol-2-one]
2 | ≤ 5 µM | ≤ 5 µM | – | CC(=O)C1=C(O)C(=O)N(c2ccc(Cl)cc2)C1C1CCCCC1 (racemic) [Compound 24, 4-acetyl-1-(4-chlorophenyl)-5-cyclohexyl-3-hydroxy-1,5-dihydro-2H-pyrrol-2-one]
3 | ≤ 5 µM | ≤ 5 µM | – | CC(=O)C1=C(O)C(=O)N(c2ccc(C)cc2)C1C1CCCCC1 (racemic) [Compound 10, 4-acetyl-5-cyclohexyl-3-hydroxy-1-(4-methylphenyl)-1,5-dihydro-2H-pyrrol-2-one]
4 | – | ≤ 5 µM | – | CSC1=C(O)C(=O)N(c2ccc(Cl)cc2)C1C1CCCCC1 (racemic) [Compound 128, 1-(4-chlorophenyl)-5-cyclohexyl-3-hydroxy-4-(methylthio)-1,5-dihydro-2H-pyrrol-2-one]

More lines, now with the values behind:

Row | Structure (SMILES) | IC50 (CCR2 [1]) | IC50 (CCR2 [2]) | melting point
5 | CCOC(=O)OC1=C(C(C)=O)[C@@H](C2CCCCC2)N(c2ccc(Cl)cc2F)C1=O [Compound P1, (5R)-4-acetyl-1-(4-chloro-2-fluorophenyl)-5-cyclohexyl-2-oxo-2,5-dihydro-1H-pyrrol-3-yl ethyl carbonate] | – | – | 74 °C
6 | CC(=O)C1=C(O)C(=O)N(c2ccc(Cl)c(C)c2)C1C1CCCC1 (racemic) [Compound 69, 4-acetyl-1-(4-chloro-3-methylphenyl)-5-cyclopentyl-3-hydroxy-1,5-dihydro-2H-pyrrol-2-one] | ≤ 5 µM | ≤ 5 µM | –
7 | CC(=O)C1=C(O)C(=O)N(c2ccc(Cl)c(C)c2)[C@@H]1C1CCCC1 [Compound 135, (R)-4-acetyl-1-(4-chloro-3-methylphenyl)-5-cyclopentyl-3-hydroxy-1,5-dihydro-2H-pyrrol-2-one] | – | ≤ 5 µM | –
8 | CC(=O)C1=C(O)C(=O)N(c2ccc(Cl)cc2)[C@@H]1C12CC3CC(CC1C3)C2 [Compound 156, (R)-4-acetyl-1-(4-chlorophenyl)-3-hydroxy-5-tricyclo[3.3.1.0˜3,7˜]non-3-yl-1,5-dihydro-2H-pyrrol-2-one] | ≤ 5 µM | ≤ 5 µM | –
9 | CC(=O)C1=C(O)C(=O)N(c2ccc(Cl)c(N)c2)C1C1CCCCC1 (racemic) [Compound 71, 4-acetyl-1-(3-amino-4-chlorophenyl)-5-cyclohexyl-3 hydroxy-1,5-dihydro-2H-pyrrol-2-one] | – | ≤ 5 µM | –
10 | CC(=O)C1=C(O)C(=O)N(c2ccc(F)cc2F)C1C1CCCCC1 (racemic) [Compound 62, 4-acetyl-5-cyclohexyl-1-(2,4-difluorophenyl)-3-hydroxy-1,5-dihydro-2H-pyrrol-2-one] | – | ≤ 5 µM | –
